Data reported in patent EP0469547B1, “4-Amino-delta4,6-steroids and their use as 5alpha-reductase inhibitors” (MERRELL PHARMACEUTICALS INC., priority 1990, dated 1992).

Target: T1, steroid 5α-reductase (Homo sapiens, UniProt P31213)
T1 construct: Microsomal preparations of the steroid 5α-reductase enzyme (protein) were obtained from human prostate tissue; from tissue; host or cells: human prostate tissue (microsomal preparation)
T1 sequence (P31213 1-254): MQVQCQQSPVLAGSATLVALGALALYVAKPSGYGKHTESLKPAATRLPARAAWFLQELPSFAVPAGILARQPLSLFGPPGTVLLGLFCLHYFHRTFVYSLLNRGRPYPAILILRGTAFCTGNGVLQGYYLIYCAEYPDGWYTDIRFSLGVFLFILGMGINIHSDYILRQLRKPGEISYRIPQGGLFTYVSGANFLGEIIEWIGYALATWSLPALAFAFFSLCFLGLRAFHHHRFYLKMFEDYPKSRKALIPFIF
Experiment: 5α-reductase inhibition test with human prostate microsomal preparations (conversion of 1,2-³H-testosterone to dihydrotestosterone, HPLC)
Format: biochemical
Description: Microsomal preparations of the steroid 5α-reductase enzyme (protein) were obtained from human prostate tissue and stored in aliquots. Protein concentration was determined prior to use of the samples. In the method itself, individual assays for 5α-reductase activity contained 0.1M phosphate citrate buffer, pH 5.6, 1mM EDTA, 7 to 22 µg of microsomal protein, 1mM NADPH, 5 mM glucose-6-phosphate, 1 IU/ml glucose-6-phosphate dehydrogenase, 1,2-³H-testosterone, and test compound, dissolved in dimethyl sulfoxide and then diluted in phosphate-citrate buffer to yield a final assay concentration of 0.1% (v/v) dimethyl sulfoxide. The same buffer and the same quantity of dimethyl sulfoxide, without any test compound is used for the control assays. The total assay volume was 100 µl and assays were performed in duplicate. The reaction was initiated by the addition of the testosterone, and incubated for 30 minutes at 25°C. The assay is linear with time to 30 minutes.
Depending on the nature of the inhibition, testosterone concentration was typically varied from 0.15 µM (approximately 0.5 Km) to 10 Km with radioactive label constant at 0.15 µCi per assay. The amount of test compound added was varied to provide final concentrations of 1 nM to 100 µM. The reaction was quenched by the addition of 50 volumes of chloroform:methanol (2:1). The steroids were then extracted and separated by high pressure liquid chromatography and the amounts of testosterone and dihydrotestosterone present were determined to determine the percent conversion of testosterone to dihydrotestosterone and to calculate the 5α-reductase activity. The activity of the test compound was then expressed as the IC₅₀, or the concentration of test compound that produced a 50% inhibition of the testosterone conversion. When compounds of the present invention were tested in this way, the following results were observed: […]

Row | Structure (SMILES) | IC50 [nM]
1 | CC(C)N(C(=O)[C@H]1CC[C@H]2[C@@H]3C=CC4=C(N)C(=O)CC[C@]4(C)[C@H]3CC[C@]12C)C(C)C [4-Amino-N,N-bis(1-methylethyl)-3-oxoandrosta-4,6-diene-17β-carboxamide] | 16
2 | CC(C)(C)NC(=O)[C@H]1CC[C@H]2[C@@H]3C=CC4=C(N)C(=O)CC[C@]4(C)[C@H]3CC[C@]12C [4-Amino-N-(1,1-dimethylethyl)-3-oxoandrosta-4,6-diene-17β-carboxamide] | 8
3 | CC(=O)[C@H]1CC[C@H]2[C@@H]3C=CC4=C(N)C(=O)CC[C@]4(C)[C@H]3CC[C@]12C [4-Aminopregna-4,6-diene-3,20-dione] | 25
